According to US20250340561A1, “QUINAZOLINE COMPOUND FOR INDUCING DEGRADATION OF G12D MUTANT KRAS PROTEIN” (Astellas Pharma Inc., priority 2021, published 2025):
Like-named read-outs stand apart in the source and are kept apart here.

Columns and labels:
[1] = system: human G12D mutant KRAS-positive pancreatic cancer line AsPC-1; assay: Test Example 3: non-anchorage-dependent cell growth inhibition, spheroid 3D cell culture; assay type: cell-based; details: AsPC-1 spheroid 3D culture, 6 days, CellTiter Glo 2.0
Method: Test Example 3: Evaluation of Non-Anchorage-Dependent Cell Growth Inhibition Action on Human G12D Mutant KRAS-Positive Pancreatic Cancer Line AsPC-1
The non-anchorage-dependent cell growth inhibition action of test compounds was evaluated by spheroid 3D cell culture.
AsPC-1 cells were seeded on a low-cell-adhesive round bottom 384-well plate (PrimeSurface: from Sumitomo Bakelite) at 36 μL/well to give 5×10^2 cells per well. The cell culture was performed under the same conditions as in the Test Example 2.
The next day, the test compounds (6 points having final concentrations in the range of 10 μM to 3.0 nM) and DMSO, which was the solvent for the test compounds, as a negative control were diluted 100-fold with a fresh medium and were added at 4 μL per well. After culturing in the presence of […] at 37° C. for 6 days, CellTiter Glo 2.0 (from Promega) was added at 20 μL per well. After stirring with a plate mixer (from FINEPCR) at normal temperature for 1 hour, the luminescent signals were measured with ARVO X3 (from PerkinElmer).
With the signaling value in treatment with DMSO taken as […] and with the signaling value in the medium alone without cells taken as […], the […] inhibition values (IC50) were calculated by Sigmoid-Emax model nonlinear regression analysis. The molecular weights of the test compounds were calculated as the molecular weights of the dihydrochloride for Example No. 22, the trihydrochlorides for Example Nos. 2-7, 9-12, 14-18 and 30, the tetrahydrochlorides for Example Nos. 19 and 46, the pentahydrochloride for Example No. 21 and the free forms forming no salt for the remaining Example Nos. The results for some test compounds of the formula (I) are shown in Table 4.

[2] = system: phosphorylation of ERK (Thr202/Tyr204); assay: Test Example 2: ERK phosphorylation inhibition action in AsPC-1, Cell ELISA; assay type: cell-based, human; details: AsPC-1 cells, 0% = 1 μM trametinib
Method: Test Example 2: Evaluation of ERK Phosphorylation Inhibition Action on Human G12D Mutant KRAS-Positive Pancreatic Cancer Line AsPC-1
The ERK phosphorylation inhibition action of test compounds was evaluated by measuring phosphorylation of the 202th threonine (Thr202) and the 204th tyrosine (Tyr204) of ERK located downstream of the KRAS signal by Cell ELISA.
AsPC-1 cells were seeded on a 384-well plate (from Greiner bio-one) at 36 μL/well to give 2.0×10^4 cells per well. As for the cell culture conditions, a RPMI 1640 medium containing 10% fetal bovine serum was used in the presence of 5% CO2 at 37° C.
The next day, the test compounds (6 points having final concentrations in the range of 10 μM to 3.0 nM), trametinib (MEK inhibitor) of a final concentration of 1 μM as a positive control and DMSO, which was the solvent for the test compounds, as a negative control were diluted 100-fold with a fresh medium and were added at 4 μL per well. The cells were then cultured for 24 hours. After culturing, a 30% glyoxal solution (40% glyoxal [from Nacalai Tesque] was diluted with PBS) was quickly added at 30 μL per well, and the plate was allowed to stand for 90 minutes at room temperature to thus immobilize the cells. Then, the plate was centrifuged to remove the supernatant (using a centrifugal dehydrator machine, the supernatant was removed by the same method hereinafter), and 0.1% Triton X-100-containing PBS was added at 20 μL per well. After allowing to stand for 10 minutes at room temperature, the supernatant was removed by centrifugation, and the same operation was further repeated. Next, 0.5% SDS-containing PBS was added at 20 μL per well, and after allowing to stand at room temperature for 30 minutes, the supernatant was removed by centrifugation. Subsequently, a blocking solution (Intercept Blocking Buffer) was added at 20 μL per well, and the plate was allowed to stand for 1 hour at room temperature. The supernatant was removed by centrifugation, and an ERK (Thr202/Tyr204) phosphorylation antibody (Phospho-p44/42 MAPK (Erk 1/2) (Thr202/Tyr204) (D13.14.4E) XP Rabbit mAb; from Cell Signaling Technology) diluted 2,500-fold with a blocking solution was added at 10 or 15 μL per well as a primary antibody. The plate was allowed to stand at 4° C. overnight.
The next day, the plate was centrifuged to remove the supernatant. 0.05% Tween-20-containing PBS was added at 50 μL per well, and the supernatant was removed by centrifugation to thus wash each well. The washing was performed three times in total. After washing, Goat anti-Rabbit IgG H&L (IRDye 800CW) diluted 1,000-fold with a blocking solution was added at […] as a secondary antibody, and the plate was allowed to stand for 1 hour at room temperature. The plate was centrifuged to remove the supernatant, and each well was washed three times with 0.05% Tween-20-containing PBS in the same manner as after the primary antibody reaction. After removing the supernatant by centrifuging the plate, the plate was dried as it was with air at room temperature for 3 hours or more, and the 800-nm fluorescent signals were measured with Aerius.
With the signaling value at the time of addition of DMSO taken as 100% and with the signaling value at the time of addition of 1 μM trametinib taken as 0%, the 50% inhibition values (IC50) were calculated by Sigmoid-Emax model nonlinear regression analysis. The molecular weights of the test compounds were calculated as the molecular weights of the dihydrochloride for Example No. 22, the trihydrochlorides for Example Nos. 2-7, 9-12, 14-18 and 30, the tetrahydrochlorides for Example Nos. 19 and 46, the pentahydrochloride for Example No. 21 and the free forms forming no salt for the remaining Example Nos. The results for some test compounds of the formula (I) are shown in Table 3.

[3] = Homo sapiens, ASPC1, 144 h, read-out: IC50
[4] = Homo sapiens, ASPC1, 24 h, read-out: IC50

| Compound | IC50 ([1]; Homo sapiens, ASPC1, 144 h) [nM] | IC50 ([2]; Homo sapiens, ASPC1, 24 h) [nM] | other results |
| --- | --- | --- | --- |
| Cc1ncsc1-c1ccc([C@H](C)NC(=O)[C@@H]2C[C@@H](O)CN2C(=O)[C@H](C(C)C)n2cc(-c3ccc(COc4c(-c5c(C)c(F)cc6[nH]ncc56)c(C5CC5)cc5c(N6C[C@@H]7C[C@H]6CN7)nc(OC6CCOCC6)nc45)cc3)nn2)cc1 [Example 9] | 96 | 18 |  |
| Cc1ncsc1-c1ccc([C@H](CO)NC(=O)[C@@H]2C[C@@H](O)CN2C(=O)C(C(C)C)n2cc(-c3ccc(COc4c(-c5c(C)c(F)cc6[nH]ncc56)c(C5CC5)cc5c(N6C[C@@H]7C[C@H]6CN7)nc(OC6CCOCC6)nc45)cc3)cn2)cc1 (single isomer, unassigned) [Example 11] | 128 | 39 |  |
| Cc1ncsc1-c1ccc([C@@H](NC(=O)[C@@H]2C[C@@H](O)CN2C(=O)[C@H](C(C)C)n2cc(-c3ccc(COc4c(-c5c(C)c(F)cc6[nH]ncc56)c(C5CC5)cc5c(N6C[C@@H]7C[C@H]6CN7)nc(OC6CCOCC6)nc45)cc3)nn2)C(F)F)cc1 [Example 16] |  |  | IC50 [1, 3]: 185 nM; IC50 [2, 4]: 67 nM |
| Cc1ncsc1-c1ccc([C@H](CO)NC(=O)[C@@H]2C[C@@H](O)CN2C(=O)[C@H](C(C)C)n2cc(-c3ccc(COc4c(-c5c(C)c(F)cc6[nH]ncc56)c(C5CC5)cc5c(N6C[C@@H]7C[C@H]6CN7)nc(OC[C@@H]6CCOC6)nc45)cc3)nn2)cc1 [Example 53] |  |  | IC50 [1]: 23 nM; IC50 ([2]; 24 hours): 10 nM |
| Cc1ncsc1-c1ccc([C@H](CO)NC(=O)[C@@H]2C[C@@H](O)CN2C(=O)[C@H](C(C)C)n2cc(-c3ccc(COc4c(-c5c(C)c(F)cc6[nH]ncc56)c(C5CC5)cc5c(N6C[C@@H]7C[C@H]6CN7)nc(OC6CCN(CC(F)F)CC6)nc45)cc3)nn2)cc1 [Example 21] |  |  | IC50 [1, 3]: 47 nM; IC50 [2, 4]: 19 nM |
| Cc1c(F)cc2[nH]ncc2c1-c1c(C2CC2)cc2c(N3C[C@@H]4C[C@H]3CN4)nc(OC3CCOCC3)nc2c1OCc1ccc(-c2cn([C@H](C(=O)N3C[C@H](O)C[C@H]3C(=O)N[C@@H](CO)c3ccc(-c4ccnn4C)cc3)C(C)C)nn2)cc1 [Example 22] | 27 | 12 |  |
| Cc1c(F)cc2[nH]ncc2c1-c1c(C2CC2)cc2c(N3C[C@@H]4C[C@H]3CN4)nc(OC3CCOCC3)nc2c1OCc1ccc(-c2cn([C@H](C(=O)N3C[C@H](O)C[C@H]3C(=O)N[C@@H](CO)c3ccc(Br)cc3)C(C)C)nn2)cc1 [Example 12] | 112 | 37 |  |
| CO[C@H](C)[C@@H](C)Oc1nc(N2C[C@@H]3C[C@H]2CN3)c2cc(C3CC3)c(-c3c(C)c(F)cc4[nH]ncc34)c(OCc3ccc(-c4cn([C@H](C(=O)N5C[C@H](O)C[C@H]5C(=O)N[C@@H](CO)c5ccc(-c6scnc6C)cc5)C(C)C)nn4)cc3)c2n1 [Example 39] | 18 | 6 |  |
| Cc1ncsc1-c1ccc([C@H](CO)NC(=O)[C@@H]2C[C@@H](O)CN2C(=O)[C@@H](NC(=O)c2ccc(COc3c(-c4c(C)c(F)cc5[nH]ncc45)c(C4CC4)cc4c(N5C[C@@H]6C[C@H]5CN6)nc(OC5CCOCC5)nc34)cc2)C(C)C)cc1 [Example 3] | 108 | 62 |  |
| Cc1c(F)cc2[nH]ncc2c1-c1c(C2CC2)cc2c(N3C[C@@H]4C[C@H]3CN4)nc(OC3CCOCC3)nc2c1OCc1ccc(-c2cn([C@H](C(=O)N3C[C@H](O)C[C@H]3C(=O)N[C@@H](CO)c3ccc(F)cc3)C(C)C)nn2)cc1 [Example 13] | 74 | 29 |  |
| COCCN1CC[C@H](Oc2nc(N3C[C@@H]4C[C@H]3CN4)c3cc(C4CC4)c(-c4c(C)c(F)cc5[nH]ncc45)c(OCc4ccc(-c5cn([C@H](C(=O)N6C[C@H](O)C[C@H]6C(=O)N[C@@H](CO)c6ccc(-c7scnc7C)cc6)C(C)C)nn5)cc4)c3n2)C1 [Example 32] | 186 | 92 |  |
| CO[C@@H](C)COc1nc(N2C[C@@H]3C[C@H]2CN3)c2cc(C3CC3)c(-c3c(C)c(F)cc4[nH]ncc34)c(OCc3ccc(-c4cn([C@H](C(=O)N5C[C@H](O)C[C@H]5C(=O)N[C@@H](CO)c5ccc(F)cc5)C(C)C)nn4)cc3)c2n1 [Example 58] | 80 | 25 |  |
| Cc1ncsc1-c1ccc([C@H](CO)NC(=O)[C@@H]2C[C@@H](O)CN2C(=O)[C@H](C(C)C)n2cc(-c3ccc(COc4c(-c5c(C)c(F)cc6[nH]ncc56)c(C5CC5)cc5c(N6C[C@@H]7C[C@H]6CN7)nc(OCC6(CO)CCOCC6)nc45)cc3)nn2)cc1 (atropisomer, axis not shown) [Example 36] | 24 | 31 |  |
| Cc1ncsc1-c1ccc([C@H](CO)NC(=O)[C@@H]2C[C@@H](O)CN2C(=O)[C@H](C(C)C)n2cc(-c3ccc(COc4c(-c5c(C)c(F)cc6[nH]ncc56)c(C5CC5)cc5c(N6C[C@@H]7C[C@H]6CN7)nc(O[C@H](C)CN6CCOCC6)nc45)cc3)nn2)cc1 [Example 45] | 20 | 11 |  |
| Cc1ncsc1-c1ccc(CNC(=O)[C@@H]2C[C@@H](O)CN2C(=O)[C@H](C(C)C)n2cc(-c3ccc(COc4c(-c5c(C)c(F)cc6[nH]ncc56)c(C5CC5)cc5c(N6C[C@@H]7C[C@H]6CN7)nc(OC6CCOCC6)nc45)cc3)nn2)cc1 [Example 10] | 114 | 26 |  |
| Cc1ncsc1-c1ccc([C@H](CO)NC(=O)[C@@H]2C[C@@H](O)CN2C(=O)[C@H](C(C)C)n2cc(-c3ccc(COc4c(-c5c(C)c(F)cc6[nH]ncc56)c(C5CC5)cc5c(N6C[C@@H]7C[C@H]6CN7)nc(O[C@H]6CCN(CCO)C6)nc45)cc3)nn2)cc1 [Example 31] | 321 | 194 |  |
| Cc1c(F)cc2[nH]ncc2c1-c1c(C2CC2)cc2c(N3C[C@@H]4C[C@H]3CN4)nc(OC3CCOCC3)nc2c1OCc1ccc(-c2cn([C@H](C(=O)N3C[C@H](O)C[C@H]3C(=O)N[C@@H](CO)c3cccc(S(C)(=O)=O)c3)C(C)C)nn2)cc1 [Example 67] |  |  | IC50 [1, 3]: 975 nM; IC50 [2, 4]: 758 nM |
| CO[C@@H](C)COc1nc(N2C[C@@H]3C[C@H]2CN3)c2cc(C3CC3)c(-c3c(C)c(F)cc4[nH]ncc34)c(OCc3ccc(-c4cn([C@H](C(=O)N5C[C@H](O)C[C@H]5C(=O)N[C@@H](CO)c5ccc(-c6ocnc6C)cc5)C(C)C)nn4)cc3)c2n1 [Example 72] |  |  | IC50 [1, 3]: 26 nM; IC50 [2, 4]: 16 nM |
